Results taken from patent publication US12564598B2, “Nitric oxide-sensitive hydrogel” (POSTECH RESEARCH AND BUSINESS DEVELOPMENT FOUNDATION, priority 2021, dated 2026).

Test: Degradation of crosslinking agent after incubation in saturated NO solution (1H NMR, FT-IR, UV-Vis)
Type: physicochemical
Settings: incubation in a saturated NO solution; primary amine peak disappeared, benzotriazole formed
Description: The mechanism by which the above synthesized crosslinking agent DA-NOCCL reacts with nitric oxide to degrade and the ^1H NMR, FT-IR, and UV-Vis absorption data confirming this are shown in FIGS. 4 and 5.

## C#CCCC(=O)Nc1ccc(NC(=O)CCC#C)c(N)c1 [DA-NOCCL]
  degradation in response to NO: can be degraded in response to NO
